Test results reported in PMC7916974 (Viruses, 2021).
Where two headings read alike, the source gives them in different places.

Columns and labels:
[1] = system: pro-inflammatory cytokines (TNF-α, IL-1β, IL-6, and IL-8); test: Cytokine mRNA in lungs of infected mice (qRT-PCR); format: in vivo, BALB/c mice; conditions: two, four and six days post-infection
A/California/2/2014 H3N2 = test: microbe, parasite or virus in culture; format: cell-based; conditions: Influenza A virus, H3N2, MDCK, 72 h
[2] = system: A/Virginia/ATCC2/2009 H1N1; test: microbe, parasite or virus in culture; format: cell-based; conditions: Influenza A virus, MDCK, 72 h
[3] = Cytotoxicity assay (MTT), MDCK cells; format: cell-based, canine; conditions: dog; for CC50 at 72 h: MDCK cells, MTT, read-out: CC50 (50% cytotoxic concentration)
A/Weiss/43 H1N1 [4] = test: microbe, parasite or virus in culture; conditions: Influenza A virus, H1N1, MDCK, 72 h, read-out: EC50 (50% effective concentration)
A/Weiss/43 H1N1 [5] = test: Infected mouse model: lung index, symptoms; format: in vivo, BALB/c mice; conditions: for clinical symptoms of infected mice: intragastric once a day for six days
[6] = system: A549 cells infected with A/Weiss/43 H1N1; format: cell-based; conditions: 24 h
influenza A virus [7] = format: cell-based
A/Weiss/43 H1N1 [8] = format: cell-based, influenza A virus; conditions: 6.25–100 µM
in vitro = format: cell-based; conditions: human
A/Weiss/43 H1N1 [9] = system: A/Weiss/43 H1N1
[10] = system: A549 cells infected with A/Weiss/43 H1N1; format: cell-based; conditions: 24 h post-infection
[11] = system: A/Weiss/43 H1N1-induced apoptosis in A549 cells; format: cell-based; conditions: 24 h post-infection
influenza A virus [12] = format: cell-based; remark: listed apart in the source
IAV = test: microbe, parasite or virus in culture; format: cell-based; conditions: Influenza A virus, ATCC2|H1N1|H3N2, MDCK, read-out: EC50 values (range over IAV strains)
A/Weiss/43 H1N1 [13] = format: cell-based, influenza A virus
A/Weiss/43 H1N1 [14] = test: Viral NP mRNA in lungs of infected mice (qRT-PCR); format: in vivo, BALB/c mice; conditions: two, four and six days post-infection
[15] = 50 mg/kg/d intragastric, six days post infection
[16] = 100 mg/kg/d intragastric, six days post infection

Structure (SMILES): NC(=O)c1ncn([C@@H]2O[C@H](CO)[C@@H](O)[C@H]2O)n1 [Ribavirin]
- expressions of pro-inflammatory cytokines in mouse lungs [1]: inhibit the increased expressions of pro-inflammatory cytokines
- EC50 (A/California/2/2014 H3N2): 13 ± 3.74 µM
- EC50 [2]: 13.9 ± 1.06 µM
- CC50 at 72 h [3]: 608 ± 34 µM
- EC50 (A/Weiss/43 H1N1 [4]): 22.2 ± 0.76 µM
- clinical symptoms of infected mice (A/Weiss/43 H1N1 [5]): relieve these symptoms

Structure (SMILES): COC1=C(c2ccc(Cl)cc2)C(=O)OC1(C)COS(=O)(=O)Cc1ccccc1 (stereo not shown) [Compound 3D]
- expression of influenza M2 protein ([6]; 30, 50, 80 µM): inhibited
- IAV-induced upregulation of Bax/Bcl-2 ([6]; A549 cells): reduced this upregulation
- expressions of pro-inflammatory cytokines in mouse lungs [1]: inhibit the increased expressions of pro-inflammatory cytokines
- EC50 (A/California/2/2014 H3N2): 24.1 ± 1.16 µM
- inhibitory effect on viral replication, added before viral adsorption (influenza A virus [7]): almost no inhibitory effects
- inhibitory effect, added during viral inoculation (influenza A virus [7]): slight inhibitory effect
- protective effect, added after viral adsorption (influenza A virus [7]): significant protective effect
- levels of NP mRNA in IAV-infected MDCK cells (A/Weiss/43 H1N1 [8]): decrease in the levels of NP mRNA
- CC50 at 72 h (in vitro): 309 ± 9.96 µM
- viability at 72 h, 800 µM (in vitro): ~40%
- SI (ratio of CC50 to EC50) (A/Weiss/43 H1N1 [9]): 29.68
- antiviral activity against A/Weiss/43 H1N1 (in words) (A/Weiss/43 H1N1 [9]): presented the antiviral activity
- mRNA expression of RIG-I, MAVS, TLR3, IRF3, IRF7 [10]: levels decreased
- mRNA expression of cytokines and chemokines (IL-1β, IL-6, IL-8, TNF-α) ([10]; dose-dependent): significantly decreased
- apoptosis rate ([11]; 30 µM, infected A549 cells (virus control 32.85 ± 3.05%)): 21.93 ± 0.97%
- apoptosis rate ([11]; 50 µM, infected A549 cells): 15.17 ± 2.87%
- apoptosis rate ([11]; 80 µM, infected A549 cells): 7.23 ± 1.30%
- EC50 [2]: 18.1 ± 2.6 µM
- levels of NP mRNA, time-of-addition (influenza A virus [12]): significantly suppressed
- viability at 72 h, 800 µM [3]: ~40%
- CC50 at 72 h [3]: 365 ± 1.58 µM
- EC50 (A/Weiss/43 H1N1 [4]): 12.3 ± 0.53 µM
- EC50 (IAV): 12.3 to 24.1 µM
- Inhibition ratio of lung index (A/Weiss/43 H1N1 [5]; 25 mg/kg/d intragastric, six days post infection): 11.35%
- Lung Index (A/Weiss/43 H1N1 [5]; 25 mg/kg/d intragastric, six days post infection (virus control 1.70 ± 0.06)): 1.51 ± 0.06
- Inhibition ratio of lung index (A/Weiss/43 H1N1 [5]; [15]): 28.47%
- Lung Index (A/Weiss/43 H1N1 [5]; [15]): 1.22 ± 0.09
- Inhibition ratio of lung index (A/Weiss/43 H1N1 [5]; [16]): 33.21%
- Lung Index (A/Weiss/43 H1N1 [5]; [16]): 1.14 ± 0.05
- clinical symptoms of infected mice (A/Weiss/43 H1N1 [5]): relieve these symptoms
- lung indexes versus virus control group (in words) (A/Weiss/43 H1N1 [5]; six days post infection): significantly lower than those in the virus control group
- virus titers of A549 cells (A/Weiss/43 H1N1 [13]): significantly decreased
- expression of viral NP mRNA in IAV infected lungs (A/Weiss/43 H1N1 [14]): decreased the expression of viral NP mRNA in a dose-dependent manner

Structure (SMILES): CCOC(=O)C1=C[C@@H](OC(CC)CC)[C@H](NC(C)=O)[C@@H](N)C1 [Oseltamivir, reference compound]
- expressions of pro-inflammatory cytokines in mouse lungs [1]: inhibit the increased expressions of pro-inflammatory cytokines
- EC50 (A/California/2/2014 H3N2): 9.47 ± 2.48 µM
- SI (ratio of CC50 to EC50) (A/Weiss/43 H1N1 [9]): >1403.51
- EC50 [2]: 6.97 ± 0.38 µM
- CC50 at 72 h [3]: > 800 µM
- EC50 (A/Weiss/43 H1N1 [4]): 0.57 ± 0.29 µM
- Inhibition ratio of lung index (A/Weiss/43 H1N1 [5]; [15]): 35.99%
- Lung Index (A/Weiss/43 H1N1 [5]; [15]): 1.09 ± 0.12
- clinical symptoms of infected mice (A/Weiss/43 H1N1 [5]): relieve these symptoms
- lung indexes versus virus control group (in words) (A/Weiss/43 H1N1 [5]; six days post infection): significantly lower than those in the virus control group
